This passage reports IC50 and inhibition in vivo results from ChEMBL document CHEMBL1156967 (Bioorg Med Chem Lett, 2010).

Assay [1] concerns the target Voltage-gated inwardly rectifying potassium channel KCNH2 (Homo sapiens, UniProt Q12809). The assay can be described thus: Inhibition of human ERG by patch clamp technique.
Assay [2] concerns the target Mitogen-activated protein kinase 11 (Homo sapiens, UniProt Q15759). The assay can be described thus: Inhibition of p38beta assessed as gamma-[33P]ATP incorporation by scintillation counting.
The next assay relates to Rattus norvegicus. In words: Antiinflammatory activity in Lewis rat plasma assessed as reduction in LPS-stimulated TNFalpha accumulation at 5 mg/kg, ig administered 4 hrs before LPS challenge measured after […] by ELISA. The assay is classed as functional. As to conditions: po, route intragastric.

Chain of Voltage-gated inwardly rectifying potassium channel KCNH2 (Q12809 whole entry): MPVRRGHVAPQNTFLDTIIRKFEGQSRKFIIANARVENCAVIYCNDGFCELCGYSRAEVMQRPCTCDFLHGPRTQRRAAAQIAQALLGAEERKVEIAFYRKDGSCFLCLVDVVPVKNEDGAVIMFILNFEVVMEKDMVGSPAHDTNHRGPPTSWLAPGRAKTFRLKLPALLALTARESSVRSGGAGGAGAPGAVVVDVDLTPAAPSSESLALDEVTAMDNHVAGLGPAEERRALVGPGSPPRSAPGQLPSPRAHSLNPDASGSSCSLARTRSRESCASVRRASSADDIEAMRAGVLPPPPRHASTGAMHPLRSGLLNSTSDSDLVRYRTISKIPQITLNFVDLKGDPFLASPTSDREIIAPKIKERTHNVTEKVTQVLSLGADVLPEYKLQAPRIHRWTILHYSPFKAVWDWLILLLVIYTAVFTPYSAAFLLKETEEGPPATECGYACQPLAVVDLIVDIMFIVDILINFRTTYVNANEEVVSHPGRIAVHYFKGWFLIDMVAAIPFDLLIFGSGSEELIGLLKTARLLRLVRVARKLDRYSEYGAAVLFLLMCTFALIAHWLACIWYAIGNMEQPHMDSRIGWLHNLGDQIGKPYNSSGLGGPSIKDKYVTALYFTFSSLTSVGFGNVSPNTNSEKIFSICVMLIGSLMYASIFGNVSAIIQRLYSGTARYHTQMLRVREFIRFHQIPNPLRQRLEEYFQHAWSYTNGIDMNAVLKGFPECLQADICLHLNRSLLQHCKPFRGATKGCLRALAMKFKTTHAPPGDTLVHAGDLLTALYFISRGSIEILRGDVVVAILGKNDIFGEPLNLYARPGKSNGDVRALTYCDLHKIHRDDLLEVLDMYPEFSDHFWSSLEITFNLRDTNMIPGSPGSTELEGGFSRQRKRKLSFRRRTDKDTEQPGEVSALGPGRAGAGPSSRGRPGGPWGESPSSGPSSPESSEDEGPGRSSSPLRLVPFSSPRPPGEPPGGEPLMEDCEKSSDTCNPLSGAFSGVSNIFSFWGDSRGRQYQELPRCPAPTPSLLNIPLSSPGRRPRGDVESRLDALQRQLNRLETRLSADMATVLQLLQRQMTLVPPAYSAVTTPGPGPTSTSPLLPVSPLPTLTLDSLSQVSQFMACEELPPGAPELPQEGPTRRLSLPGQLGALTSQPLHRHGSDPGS
Chain of Mitogen-activated protein kinase 11 (Q15759 whole entry): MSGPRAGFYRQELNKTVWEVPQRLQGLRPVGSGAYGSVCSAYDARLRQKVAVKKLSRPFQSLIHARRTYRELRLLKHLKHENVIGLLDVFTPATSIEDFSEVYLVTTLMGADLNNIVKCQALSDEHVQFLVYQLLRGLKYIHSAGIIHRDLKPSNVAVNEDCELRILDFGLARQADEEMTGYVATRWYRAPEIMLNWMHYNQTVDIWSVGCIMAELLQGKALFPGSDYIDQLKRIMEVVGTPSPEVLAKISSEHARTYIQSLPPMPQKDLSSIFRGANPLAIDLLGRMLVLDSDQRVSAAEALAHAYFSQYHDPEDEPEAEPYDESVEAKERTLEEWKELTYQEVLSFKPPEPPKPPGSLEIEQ

For orientation: IC50 means the concentration that inhibits the measured activity by half. For orientation: inhibition in vivo means the change of the read-out against control, counted positive when it falls. In the case of `CC(=O)N1CCC(c2[nH]nc(-c3ccc(F)cc3)c2-c2ccncc2)CC1`, the IC50 in assay [1] stood at 790 nM; in assay [2], 2770 nM. Further, the inhibition in vivo at 5 mg/kg with Rattus norvegicus was determined as 41%.
